According to patent publication US20240165185A1, “COMBINATION OF A MYRTLE EXTRACT AND A TRIPTERYGIUM WILFORDII EXTRACT FOR COMBATING C. ACNES-INDUCED INFLAMMATION” (priority 2021, published 2024):

Experiments:
Format in all cases: cell-based
[1] = tested on: production of IL-12p40 by dendritic cells derived from monocytes; assay: Inhibition of IL-12p40 production by monocyte-derived dendritic cells stimulated with C. acnes membranes; conditions: Homo sapiens, Dendritic cell; C. acnes phylotype IA1 membranes, 24 hours stimulation; dexamethasone 300 ng/ml, myrtle extract 10 μg/ml, Trip extract 25 μg/ml, combination 10 and 25 μg/ml; mean of 3 experiments
Protocol: (§1) The experiments were performed on co-cultures of immature dendritic cells derived from monocytes, at a final concentration of 1.10^5 cells/ml/well and biofilms or membranes of C. acnes of phylotype IA1 . The monocytes are purified from human blood by negative selection (The EasySep™ Human Monocyte Enrichment Kit, StemCell).
(§2) On Day 0, the monocytes are incubated in a differentiation medium (Gibco Roswell Park Memorial Institute (RPMI), 10% v/v foetal bovine serum (FBS) that has been decomplemented (heated to 56° C. for 30 minutes), 50 ng/ml IL-4 and 100 ng/ml Recombinant Human Granulocyte Macrophage Colony-Stimulating Factor (GM-CSF)). On the 3rd day of culture, half of the medium is replaced by fresh medium. On day 6, the immature dendritic cells are characterised by flow cytometry and stimulated by a biofilm or membranes of C. acnes.
(§3) The membranes of C. acnes are purchased from the Icare laboratory (Saint-Beauzire, France).
(§4) The stimulation of the immature dendritic cells derived from monocytes by the membranes of C. acnes is carried out with a dilution to 1/20 of a solution of membranes in the culture medium (RPMI+10% v/v FBS) at a concentration of 0.15 mg/ml.
(§5) The myrtle extract used in this study is prepared according to example 1. This extract is solubilised and stored at […] in ethanol (10 mg of dry extract prepared according to example 1, in 1 ml of ethanol). […]

[2] = tested on: production of IL-10 by dendritic cells derived from monocytes; assay: Inhibition of IL-10 production by monocyte-derived dendritic cells stimulated with biofilm of C. acnes; conditions: Homo sapiens, Dendritic cell; biofilm of C. acnes phylotype IA1, MOI close to 100, 24 hours stimulation; dexamethasone 300 ng/ml, combination 10 and 25 μg/ml; mean of 3 experiments
Protocol: as §1, §2
The myrtle extract used in this study is prepared according to example 1. This extract is solubilised and stored at […] in ethanol (10 mg of dry extract prepared according to example 1, in 1 ml of ethanol). The concentration tested is 10 μg/ml.
The extract of Tripterygium wilfordii (Trip extract below) used in this study is prepared according to example 2.

[3] = tested on: production of IL-10 by dendritic cells derived from monocytes; assay: Inhibition of IL-10 production by monocyte-derived dendritic cells stimulated with C. acnes membranes; conditions: Homo sapiens, Dendritic cell; C. acnes phylotype IA1 membranes, 24 hours stimulation; dexamethasone 300 ng/ml, myrtle extract 10 μg/ml, Trip extract 25 μg/ml, combination 10 and 25 μg/ml; mean of 3 experiments
Protocol: as §1, §2, §3, §4, §5

[4] = tested on: production of IL-6 by dendritic cells derived from monocytes; assay: Inhibition of IL-6 production by monocyte-derived dendritic cells stimulated with C. acnes membranes; conditions: Homo sapiens, Dendritic cell; C. acnes phylotype IA1 membranes, 24 hours stimulation; dexamethasone 300 ng/ml, myrtle extract 10 μg/ml, Trip extract 25 μg/ml, combination 10 and 25 μg/ml; mean of 3 experiments
Protocol: as §1, §2, §3, §4, §5

[5] = tested on: production of IL-8 by dendritic cells derived from monocytes; assay: Inhibition of IL-8 production by monocyte-derived dendritic cells stimulated with C. acnes membranes; conditions: Homo sapiens, Dendritic cell; C. acnes phylotype IA1 membranes, 24 hours stimulation; dexamethasone 300 ng/ml, myrtle extract 10 μg/ml, Trip extract 25 μg/ml, combination 10 and 25 μg/ml; mean of 3 experiments
Protocol: as §1, §2, §3
The stimulation of the immature dendritic cells derived from monocytes by the membranes of C. acnes is carried out with a dilution to 1/20 of a solution of membranes in the culture medium (RPMI+10% v/v FBS) at a concentration of 0.15 mg/ml. […]
Several cytokines are evaluated in this study. IL-6, IL-8, IL-10, and IL-12p40; these cytokines are quantified in multiplex using the Luminex technology (Bioplex 200, Biorad).

Structure (SMILES): C[C@@H]1C[C@H]2[C@@H]3CCC4=CC(=O)C=C[C@]4(C)[C@@]3(F)[C@@H](O)C[C@]2(C)[C@@]1(O)C(=O)CO [Dexamethasone, dexamethasone]
- inhibition at 0.3 µg/mL [1]: 79.5%
- inhibition at 0.3 µg/mL [2]: 38.6%
- inhibition at 0.3 µg/mL [3]: 41.7%
- inhibition at 0.3 µg/mL [4]: 76.8%
- inhibition at 0.3 µg/mL [5]: 47.6%
